Measured values reported in patent US10172875B2, “Therapeutic combinations comprising anti-FOLR1 immunoconjugates” (ImmunoGen, Inc., priority 2015, dated 2019).

Tests used:
[1] = test system: ST088 human epithelial ovarian cancer patient derived tumor xenografts; experiment: Antitumor activity of IMGN853, PLD and combination in ST088 tumor model (Example 1); assay type: in vivo, SCID mice
Experimental: Tumor volumes were measured twice weekly in three dimensions using a caliper. […] FIG. 1 depicts the results.

[2] = test system: OV90 serous ovarian tumor xenografts; experiment: Antitumor activity of IMGN853 (1.25 mg/kg), paclitaxel, bevacizumab and combinations in OV90 tumor model (Example 4); assay type: in vivo, SCID mice; details: single doses: IMGN853 1.25 mg/kg, paclitaxel 10 mg/kg, bevacizumab 5 mg/kg
Experimental: Mice were randomized into groups (n=8 per group) by tumor volume and subsequently dosed on Day 14 post-inoculation. All treatments consisted of single doses (1×).
Tumor volumes were measured one to two times weekly in three dimensions using a caliper. […] Body weights were measured twice per week as an index of toxicity.

IGROV-1 cells = experiment: Cell cycle analysis, IMGN853 and carboplatin (FIG. 9B); assay type: cell-based; details: carboplatin 20 μM, IMGN853 8 nM, alone or combined, 6 hours, then 24 hour drug-free medium
Experimental: Cells were washed, and cell cycle distribution determined following 24 hour culture in drug-free medium.

[3] = test system: platinum-resistant ovarian cancer PDXs; experiment: IMGN853 and PLD in platinum-resistant EOC PDX model (FIG. 10C, 10D); assay type: in vivo, SCID mice; details: QWx2: IMGN853 5 mg/kg or PLD 4 mg/kg; day 49
Experimental: Data are expressed as mean and SEM for each time point.
Mean values are plotted against vehicle controls.
To extend the in vitro observations, the combination of IMGN853 and PLD was examined in a platinum-resistant EOC PDX model (FIG. 10C). Vehicle-treated animals progressed quickly and were removed from study when tumors reached volumes between 1500-2000 mm^3. QWx2 dosing of IMGN853 (5 mg/kg) inhibited tumor growth by 81% on day 49, and a similar degree of inhibition (83%) was seen when PLD (4 mg/kg) was administered on the same schedule.

[4] = IMGN853 5 mg/kg QWx2 and/or PLD 4 mg/kg QWx2
[5] = IMGN853 5 mg/kg QWx2 and/or PLD 4 mg/kg QWx2, responders/animals

## IMGN853
[1]; IMGN853 5 mg/kg QWx2
  tolerability / body weight: well tolerated with no notable body weight loss observed
[1]; [4]
  T/C: 31%
  antitumor activity rating: active
[1]; [5]
  complete responses (CR): 0/8
  partial responses (PR): 0/8
[2]
  TFS: 0/7
  antitumor activity rating: active
[2]; alone or combined
  T/C: 37%
[2]; responders/animals
  CR: 0/7
IGROV-1 cells
  cell cycle distribution: enrichment of cells in G2/M
[3]
  tumor growth inhibition: 81%
